US9161945B2, “4-isopropyl-6-methoxyphenyl glucitol compound” (TAISHO PHARMACEUTICAL CO., LTD., priority 2010, dated 2015)
Marks after values point to notes of the source that are not given here.

Legend:
[1] = Renal concentrations until one week after single oral administration; type: in vivo, SD/IGS rats; conditions: male Sprague-Dawley rats
Description: (1) Changes in Renal Concentrations of Compounds 4, 10, 11 and 33 Disclosed in WO2007/136116 Until One Week After Oral Administration
SD/IGS rats at 7 weeks of age (male, non-fasting, Charles River Laboratories Japan Inc.) were orally administered with compound 4, 10 or 33 (1 mg/kg each) or compound 11 (0.3 mg/kg) prepared in a 0.5% aqueous solution of CMC. At 24, 72 and 168 hours after drug administration, the rats were exsanguinated via the postcaval vein under ether anesthesia, and their kidneys were excised after they were confirmed to be euthanized. After the tissue surface was washed with physiological saline, each tissue was measured for its weight and homogenized in 4 volumes of purified water under ice cooling. To each homogenate, an acetonitrile/methanol solution containing an internal standard substance was added to remove proteins, and the supernatant was then subjected to LC-MS/MS (Applied Biosystems API3000). Drug-derived ions generated by electrospray ionization in positive ion mode were detected by selective reaction monitoring. The peak area of the resulting extracted ion chromatogram was analyzed by the internal standard method to calculate the drug concentration in the homogenate.
As the internal standard material for compounds 10 and 33, (1S)-1,5-anhydro-1-[5-(4-ethoxybenzyl)-2-methoxy-4-methylphenyl]-1-thio-D-glucitol,ethyl-D5 was used. As the internal standard materials for compounds 4 and 11, compound 11 and deuterium-labeled compound 11 (trishydroxymethyl-D6; —C(CD2OH)3), respectively, were used.

[2] = tested on: streptozotocin diabetic model rats; assay: Oral glucose tolerance test (hypoglycemic effect) in streptozotocin diabetic model rats; type: in vivo, SD/IGS rats; conditions: for STZ rats OGTT % inhibition ΔAUC0-1h (mg/dl) @ 1 mg/kg/po: STZ-induced diabetic rats versus vehicle control, oral dose 1 mg/kg, glucose 2 g/kg
Description: (§1) Test Example 3 Confirmation study of hypoglycemic effect in streptozotocin diabetic model rats
(§2) (1) Preparation of Diabetic Model Rats
(§3) SD/IGS rats at 7 weeks of age (male, Charles River Laboratories Japan Inc.) were fasted for about 16 hours and then injected with 50 mg/kg streptozotocin (STZ) via the caudal vein under ether anesthesia to prepare diabetic model rats. Similarly, another group of SD/IGS rats at 7 weeks of age was injected with 1.25 mmol/L citric acid in physiological saline (1 mL/kg) via the caudal vein under ether anesthesia to prepare normal control rats. At one week after injection of STZ or 1.25 mmol/L citric acid in physiological saline, the rats (8 weeks old) were provided for an oral glucose tolerance test.
(§4) (2) Oral Glucose Tolerance Test
(§5) […] At 5 minutes after drug administration, a glucose solution (2 g/kg) was orally administered to each rat, and the blood was collected at a total of 5 time points: before drug administration (0 time), and at 0.25, 0.5, 1 and 2 hours after the oral administration.
(§6) Blood was collected from the caudal veins of the rats under ether anesthesia with the use of a heparin-coated blood collecting tube and centrifuged, whereafter blood plasma was separated. Plasma glucose concentrations were quantified by measurement with a Glucose CII-Test Wako (Wako Pure Chemical Industries, Ltd., Japan). To determine the intensity of hypoglycemic effect, the blood glucose level before drug administration was subtracted from each blood glucose level measured until one hour after oral administration in each drug group, and the resulting values were analyzed by the trapezoidal method to calculate an increment in the area under the curve for glucose (ΔAUC), which was expressed as a decrease relative to ΔAUC of the control group.

[3] = as above; type: in vivo, SD/IGS rats; conditions: OGTT using Sprague-Dawley rats, not STZ rats; oral dose 1 mg/kg
Description: as §1, §2, §3, §4, §5, §6

human SGLT1 = human SGLT1 (Homo sapiens (Human), UniProt P13866); assay: Inhibition test of sodium-dependent glucose uptake in CHO-K1 cells stably expressing human SGLT1; type: cell-based; conditions: [14C]methyl α-D-glucopyranoside uptake, 37° C., 30 minutes, read-out: IC50 for hSGLT1
Sequence of human SGLT1 (P13866 whole entry): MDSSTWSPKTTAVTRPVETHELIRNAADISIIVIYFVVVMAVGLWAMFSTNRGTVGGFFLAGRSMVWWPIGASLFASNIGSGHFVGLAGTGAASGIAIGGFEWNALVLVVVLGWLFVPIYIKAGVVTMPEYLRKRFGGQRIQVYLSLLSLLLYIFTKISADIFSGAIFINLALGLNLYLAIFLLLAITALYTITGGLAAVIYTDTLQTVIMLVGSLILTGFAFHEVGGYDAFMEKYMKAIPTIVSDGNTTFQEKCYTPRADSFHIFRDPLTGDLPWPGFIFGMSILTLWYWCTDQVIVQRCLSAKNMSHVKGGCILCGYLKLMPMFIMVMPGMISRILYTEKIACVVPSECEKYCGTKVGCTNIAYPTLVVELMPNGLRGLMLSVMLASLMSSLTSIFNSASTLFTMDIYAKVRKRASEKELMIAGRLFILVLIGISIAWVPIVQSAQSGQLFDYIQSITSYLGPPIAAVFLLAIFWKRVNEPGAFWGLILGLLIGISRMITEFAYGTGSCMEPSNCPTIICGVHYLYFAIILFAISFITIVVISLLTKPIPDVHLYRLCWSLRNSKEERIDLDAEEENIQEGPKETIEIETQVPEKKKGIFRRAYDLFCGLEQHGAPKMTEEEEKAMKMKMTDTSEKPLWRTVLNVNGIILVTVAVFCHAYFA
Description: (1) Creation of CHO-K1 Cells Stably Expressing Human SGLT1
(§7) A plasmid vector expressing human SGLT1 protein was transfected into CHO-K1 cells using Lipofectamine 2000 (Invitrogen). The cells were cultured in the presence of 500 μg/mL geneticin to select resistant strains, followed by screening in the system shown below using sugar uptake capacity as an indicator to obtain SGLT1-expressing cells.
(§8) (3) Inhibition Test of Sodium-Dependent Glucose Uptake in Stable Expression Cells
(§9) The stably expressing cells prepared above were used in the following test.
(§10) Pretreatment buffer (140 mM choline chloride, 2 mM KCl, 1 mM CaCl2, 1 mM MgCl2, 10 mM HEPES/5 mM Tris, pH 7.4) was added to the stably expressing cells, followed by incubation for 20 minutes. The pretreatment buffer was removed and replaced by uptake buffer containing a test compound (1 mM methyl α-D-glucopyranoside (containing [^14C]methyl α-D-glucopyranoside), 145 mM NaCl, 2 mM KCl, 1 mM CaCl2, 1 mM MgCl2, 10 mM HEPES/5 mM Tris, pH 7.4). Uptake reaction was performed at 37° C. for 30 minutes (SGLT1) or 60 minutes (SGLT2). […] A liquid scintillator (Perkin Elmer) was added and mixed well, followed by measurement of radioactivity using a β-ray analyzer. […]

human SGLT2 = human SGLT2 (Homo sapiens (Human), UniProt P31639); assay: Inhibition test of sodium-dependent glucose uptake in CHO-K1 cells stably expressing human SGLT2; type: cell-based; conditions: [14C]methyl α-D-glucopyranoside uptake, 37° C., 60 minutes, read-out: IC50 for hSGLT2
Sequence of human SGLT2 (P31639 whole entry): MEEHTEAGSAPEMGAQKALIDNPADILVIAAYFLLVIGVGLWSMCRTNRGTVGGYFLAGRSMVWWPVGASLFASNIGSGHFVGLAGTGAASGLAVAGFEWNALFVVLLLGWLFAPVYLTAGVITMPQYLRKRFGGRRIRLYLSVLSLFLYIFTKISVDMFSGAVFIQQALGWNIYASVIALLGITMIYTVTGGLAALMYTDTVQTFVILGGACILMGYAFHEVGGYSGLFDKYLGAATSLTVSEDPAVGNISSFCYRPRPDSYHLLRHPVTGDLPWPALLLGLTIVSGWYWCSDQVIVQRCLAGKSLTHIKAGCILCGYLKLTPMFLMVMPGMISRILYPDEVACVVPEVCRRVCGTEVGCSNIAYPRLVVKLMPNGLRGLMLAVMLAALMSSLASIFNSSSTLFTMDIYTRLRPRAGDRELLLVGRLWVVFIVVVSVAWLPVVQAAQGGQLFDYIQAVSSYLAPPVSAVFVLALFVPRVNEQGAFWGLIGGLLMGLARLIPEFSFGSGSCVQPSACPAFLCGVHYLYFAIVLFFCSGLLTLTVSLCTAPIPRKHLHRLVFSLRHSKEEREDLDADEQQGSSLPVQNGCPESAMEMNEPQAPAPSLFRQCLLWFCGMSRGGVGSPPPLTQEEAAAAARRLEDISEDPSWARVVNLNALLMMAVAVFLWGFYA
Description: (2) Creation of CHO-K1 Cells Stably Expressing Human SGLT2
as §7, with “SGLT2” for “SGLT1”, “LTX” for “2000”, “1000” for “500”, “SGLT2-expressing” for “SGLT1-expressing”
as §8, §9, §10

[4] = Renal concentrations after repeated oral administration for 3 days; type: in vivo, SD/IGS rats
Description: (2) Renal Concentrations of the Compound (I) of the Present Invention After Repeated Oral Administration for 3 Days
SD/IGS rats at 7 weeks of age (male, non-fasting, Charles River Laboratories Japan Inc.) were orally administered once a day for 3 consecutive days with the compound (I) (3 mg/kg) prepared in a 0.5% aqueous solution of CMC. At 48 hours after the final drug administration, the rats were exsanguinated via the postcaval vein under isoflurane anesthesia, and their kidneys were excised after they were confirmed to be euthanized. After the tissue surface was washed with physiological saline, each tissue was measured for its weight and homogenized in 4 volumes of purified water under ice cooling. The drug concentration in each homogenate was determined in the same manner as shown in Test Example 2(1) by LC-MS/MS using compound 11 as an internal standard substance.

Row | Compound | Concentration of compounds in kidney after single oral administration, After 1 day ([1]; 1 mg/kg po, 1 day (24 hours)) | Concentration of compounds in kidney after single oral administration, After 3 days ([1]; 1 mg/kg po, 3 days (72 hours)) | Concentration of compounds in kidney after single oral administration, After 7 days ([1]; 1 mg/kg po, 7 days (168 hours)) | STZ rats OGTT % inhibition ΔAUC0-1h (mg/dl) @ 1 mg/kg/po [2] | other results
1 | Cc1cc(O)c([C@@H]2O[C@H](CO)[C@@H](O)[C@H](O)[C@H]2O)cc1Cc1ccc(CCNC(=O)NC(CO)(CO)CO)cc1 [compound 11] |  |  |  | 68% | Concentration of compounds in kidney after single oral administration, After 1 day ([1]; 0.3 mg/kg po (footnote *), 1 day, mean ± S.D.): 63.5 ± 20.1* ng/g; Concentration of compounds in kidney after single oral administration, After 3 days ([1]; 0.3 mg/kg po (footnote *), 3 days, mean ± S.D.): 67.3 ± 3.15* ng/g; Concentration of compounds in kidney after single oral administration, After 7 days ([1]; 0.3 mg/kg po (footnote *), 7 days, mean ± S.D.): 48.7 ± 18.3* ng/g
2 | Cc1cc(O)c([C@@H]2O[C@H](CO)[C@@H](O)[C@H](O)[C@H]2O)cc1Cc1ccc(CCCC(=O)NC(C)(C)C(N)=O)cc1 [compound 4] | 68.4 ± 7.49 ng/g | 85.5 ± 23.1 ng/g | 76.3 ± 15.5 ng/g | 51% | 
3 | COc1cc(C(C)C)c(Cc2ccc(/C=C/C(C)(C)C(=O)NC(C)(C)C(N)=O)cc2C)cc1[C@@H]1O[C@H](CO)[C@@H](O)[C@H](O)[C@H]1O [Compound (I)] |  |  |  |  | IC50 (human SGLT1): 65 nM; IC50 (human SGLT2): 554 nM; remaining in the kidney (in words) ([4]; 3 mg/kg for 3 consecutive days, at subsequent day 2): did not remain in the kidney; Concentration of compounds in kidney after 3 days continuous oral administration, After 2 days ([4]; 3 mg/kg po once a day for 3 days, male Sprague-Dawley rats, 48 hours after final administration, limit of detection 5 ng/g): ND^# (ND (not determined) means limit of detection (5 ng/g).); hypoglycemic action (in words) ([2]; glucose tolerance test, compound of the invention): potent hypoglycemic action

Now from value to compound, other results behind:

Row | Concentration of compounds in kidney after single oral administration, After 1 day ([1]; 1 mg/kg po, 1 day (24 hours)) | Concentration of compounds in kidney after single oral administration, After 3 days ([1]; 1 mg/kg po, 3 days (72 hours)) | Concentration of compounds in kidney after single oral administration, After 7 days ([1]; 1 mg/kg po, 7 days (168 hours)) | Compound | STZ rats OGTT % inhibition ΔAUC0-1h (mg/dl) @ 1 mg/kg/po [2] | other results
4 | 29.8 ± 6.79 ng/g | 25.5 ± 8.68 ng/g | 16.2 ± 3.11 ng/g | Cc1cc(O)c([C@@H]2O[C@H](CO)[C@@H](O)[C@H](O)[C@H]2O)cc1Cc1ccc(CCNC(=O)NC2CCN(Cc3ccccc3)CC2)cc1 [compound 33] |  | OGTT % inhibition ΔAUC0-1h (mg/dl) @ 1 mg/kg/po [3]: 81^# %
5 | 167 ± 36.3 ng/g | 124 ± 12.2 ng/g | 53.8 ± 7.6 ng/g | Cc1cc(O)c([C@@H]2O[C@H](CO)[C@@H](O)[C@H](O)[C@H]2O)cc1Cc1ccc(CCNC(=O)NC(C)(C)CO)cc1 [compound 10] | 69% | 
